From patent US20250188110A1, “SPECIFIC SMALL MOLECULE INHIBITORS THAT BLOCK KMT9 METHYLTRANSFERASE ACTIVITY AND FUNCTION” (ALBERT-LUDWIGS-UNIVERSITÄT FREIBURG, priority 2021, published 2025)

Legend:
KMT9 [1] = target: T1, KMT9 (Homo sapiens, UniProt Q9Y5N5); assay: Microscale thermophoresis (MST) KMT9 binding; settings: microscale thermophoresis, His-tag labelled KMT9 (20 nM); read-out: MST
T1 sequence (Q9Y5N5 1-214): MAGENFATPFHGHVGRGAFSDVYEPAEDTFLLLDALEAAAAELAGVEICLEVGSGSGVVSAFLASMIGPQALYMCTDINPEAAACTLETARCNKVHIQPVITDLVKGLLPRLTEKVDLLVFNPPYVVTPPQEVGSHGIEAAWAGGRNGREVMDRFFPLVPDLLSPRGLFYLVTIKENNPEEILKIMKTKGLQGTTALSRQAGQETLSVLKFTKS
T1 sequence (Q9UI30 1-120 isoform Q9UI30-2 partner): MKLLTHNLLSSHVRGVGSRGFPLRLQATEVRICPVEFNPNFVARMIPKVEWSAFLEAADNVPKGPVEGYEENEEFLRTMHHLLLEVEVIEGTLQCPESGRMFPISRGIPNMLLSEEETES
In short: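 Kd from microscale thermophoresis: compound series against 20 nM His-KMT9 labelled via RED-Tris-NTA, buffer 25 mM HEPES (pH 7.5)/100 mM NaCl/1 mM DTT/0.05% Tween, 40% MST power, 100% LED. Reported as classes: A ≤10 nM, B >10–100 nM, C >100–1000 nM, D >1000 nM.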

KMT9 [2] = target: T1, KMT9; assay: KMT9 thermal shift assay (SyproOrange); format: binding; settings: ΔTm; 500 µM compound, 2 μM KMT9, 5X SO; read-out: Thermal shift
In short: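 ΔTm versus DMSO-only control is reported in bins (>20 K, 15–20 K, 10–15 K, ≤10 K), using Tm from Boltzmann sigmoidal fits of SyproOrange melt curves. KMT9 with compound in pH 8.5 BTP buffer containing MgCl2 and DTT was preincubated at 25° C, then ramped 1° C per 15 s up to 95° C.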

KMT9 [3] = target: T1, KMT9; assay: KMT9 methyltransferase inhibition assay, 3H-SAM scintillation (entries 1-154); format: biochemical; settings: entries 1-154: 3H-SAM assay, 25 nM KMT9, 5 μM ETF1
In short: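 Tritium transfer from SAM (0.3 μM 3H-SAM, 0.7 μM unlabelled, final) to 5 μM ETF1 fragment by 25 nM KMT9 was measured after 2 h at 30° C, pH 8.5. Precipitated peptide was collected on filters and scintillation counted; IC50 came from a four-parameter fit of inhibition normalised to controls.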

SMILES | Kd (KMT9 [1]) | ΔTm at 500 µM (KMT9 [2]) | IC50 (KMT9 [3])
CNc1ncnc2c1ccn2[C@@H]1C[C@H](C(=O)N(C)CCCNCCc2cccc(Oc3ccccc3)c2)[C@@H](O)[C@H]1O [351 (255), (1S,2R,3S,4R)-2,3-dihydroxy-N-methyl-4-(4-(methylamino)-7H-pyrrolo[2,3-a]pyrimidin-7-yl)-N-(3-((3-phenoxyphenethyl)amino)propyl) cyclopentane-1-carboxamide] | 10 to 100 nM | 10 to 15 °C | 1000 to 10000 nM
CNc1ncnc2c1ccn2[C@@H]1C[C@H](CN2CCCC23CCNCC3)[C@@H](O)[C@H]1O [451 (323), (1S,2R,3R,5R)-3-((1,8-Diazaspiro[4.5]decan-1-yl)methyl)-5-(4-(methylamino)-7H-pyrrolo[2,3-d]pyrimidin-7-yl) cyclopentane-1,2-diol] | > 1000 nM | ≤ 10 °C | > 10000 nM
CNc1ncnc2c1ccn2[C@@H]1C[C@H](CNCCCNCc2ccc(OCc3ccccc3)cc2)[C@@H](O)[C@H]1O [328 (232), (1S,2R,3R,5R)-3-(((3-((4-(benzyloxy)benzyl)amino)propyl)amino)methyl)-5-(4-(methylamino)-7H-pyrrolo[2,3-d]pyrimidin-7-yl) cyclopentane-1,2-diol] | > 1000 nM | ≤ 10 °C | > 10000 nM
CNc1ncnc2c1ccn2[C@@H]1C[C@H](CN2CCC23CCNC3)[C@@H](O)[C@H]1O (stereo partly drawn) [446 (318), (1S,2R,3R,5R)-3-{1,6-Diazaspiro[3.4]octan-1-ylmethyl}-5-[4-(methylamino)pyrrolo[2,3-d]pyrimidin-7-yl]cyclopentane-1,2-diol] | > 1000 nM | ≤ 10 °C | > 10000 nM
CNc1ncnc2c1ccn2[C@@H]1C[C@H](CNCCCNCc2ccc(Oc3ccccc3)cc2)[C@@H](O)[C@H]1O [332 (236), (1R,2S,3R,5R)-3-(4-(methylamino)-7H-pyrrolo[2,3-d]pyrimidin-7-yl)-5-(((3-((4-phenoxybenzyl)amino)propyl)amino)methyl) cyclopentane-1,2-diol] | > 1000 nM | ≤ 10 °C | > 10000 nM
CNc1ncnc2c1ccn2[C@@H]1C[C@H](CNCCCNCCc2ccc(Oc3ccc(Cl)cc3)c(F)c2)[C@@H](O)[C@H]1O [370 (274), (1S,2R,3R,5R)-3-(((3-((4-(4-chlorophenoxy)-3-fluorophenethyl)amino)propyl)amino)methyl)-5-(4-(methylamino)-7H-pyrrolo[2,3-a]pyrimidin-7-yl) cyclopentane-1,2-diol] | > 1000 nM | 10 to 15 °C | 1000 to 10000 nM
NC[C@H]1C[C@@H](n2cc3c4c(ncnc42)NCCCC3)[C@H](O)[C@@H]1O [Compound 630, (1S,2R,3R,5R)-3-(Aminomethyl)-5-(7,8,9,10-tetrahydro-2,3,5,6-tetraazacycloocta [cd]inden-2 (6H)-yl)cyclopentane-1,2-diol] | > 1000 nM | ≤ 10 °C | > 10000 nM
CNc1ncnc2c1ccn2[C@@H]1C[C@H](COCCCNCCc2cccc(Oc3ccccc3)c2)[C@@H](O)[C@H]1O [421 (292), (1R,2S,3R,5R)-3-(4-(Methylamino)-7H-pyrrolo[2,3-d]pyrimidin-7-yl)-5-((3-((3-phenoxyphenethyl)amino)propoxy)methyl) cyclopentane-1,2-diol] | > 1000 nM | ≤ 10 °C | > 10000 nM
CNc1ncnc2c1ccn2[C@@H]1C[C@H](C(=O)NCCCNCc2ccc(Oc3ccc(Cl)cc3)c(F)c2)[C@@H](O)[C@H]1O [352 (256), (1S,2R,3S,4R)—N-(3-((4-(4-chlorophenoxy)-3-fluorobenzyl)amino)propyl)-2,3-dihydroxy-4-(4-(methylamino)-7H-pyrrolo[2.3-d]pyrimidin-7-yl)cyclopentane-1-carboxamide] | 100 to 1000 nM | 10 to 15 °C | > 10000 nM
CNc1ncnc2c1ccn2[C@@H]1C[C@H](CSCCN)[C@@H](O)[C@H]1O [430 (302), (1S,2R,3S,5R)-3-(((2-Aminoethyl)thio)methyl)-5-(4-(methylamino)-7H-pyrrolo[2,3-d]pyrimidin-7-yl) cyclopentane-1,2-diol] | > 1000 nM | ≤ 10 °C | > 10000 nM
CNc1ncnc2c1ccn2[C@@H]1C[C@H](C(=O)NCC2CCCNC2)[C@@H](O)[C@H]1O (stereo partly drawn) [348 (252), (1S,2R,3S,4R)-2,3-dihydroxy-4-(4-(methylamino)-7H-pyrrolo[2,3-d]pyrimidin-7-yl)-N-(piperidin-3-ylmethyl) cyclopentane-1-carboxamide] | > 1000 nM | ≤ 10 °C | > 10000 nM
CCC(=O)NCCCNC(=O)[C@H]1O[C@@H](n2cnc3c(N)ncnc32)[C@H](O)[C@@H]1O [305 (204), (2,3S,4R,5R)-5-(6-amino-9//-purin-9-yl)-3,4-dihydroxy-N-(3-propionamidopropyl) tetrahydrofuran-2-carboxamide] | > 1000 nM | ≤ 10 °C | > 10000 nM

The next lines start with the values.

Kd (KMT9 [1]) | ΔTm at 500 µM (KMT9 [2]) | IC50 (KMT9 [3]) | SMILES
> 1000 nM | ≤ 10 °C | 1000 to 10000 nM | CNc1ncnc2c1ccn2[C@@H]1C[C@H](CN(CCCNCCc2ccccc2)c2cncs2)[C@@H](O)[C@H]1O [439 (311), (1R,2S,3R,5R)-3-(4-(Methylamino)-7H-pyrrolo[2,3-d]pyrimidin-7-yl)-5-(((3-(phenethylamino)propyl)(thiazol-5-yl)amino)methyl) cyclopentane-1,2-diol]
> 1000 nM | 10 to 15 °C | 1000 to 10000 nM | CN1CC=C(c2cn([C@@H]3C[C@H](CNCCCNCCc4ccccc4)[C@@H](O)[C@H]3O)c3ncnc(N)c23)CC1 [482 (356), (1R,2S,3R,5R)-3-(4-amino-5-(1-methyl-1,2,3,6-tetrahydropyridin-4-yl)-7H-pyrrolo[2,3-d]pyrimidin-7-yl)-5-(((3-(phenethylamino)propyl)amino)methyl) cyclopentane-1,2-diol]
100 to 1000 nM | 10 to 15 °C | 1000 to 10000 nM | CCC(C)c1cn([C@@H]2C[C@H](CNCCCNCCc3ccccc3)[C@@H](O)[C@H]2O)c2ncnc(N)c12 (stereo partly drawn) [469 (343), (1R,2S,3R,5R)-3-(4-Amino-5-(sec-butyl)-7H-pyrrolo[2,3-d]pyrimidin-7-yl)-5-(((3-(phenethylamino)propyl)amino)methyl) cyclopentane-1,2-diol]
100 to 1000 nM | 15 to 20 °C | 100 to 1000 nM | Nc1ncnc2c1c(I)cn2[C@@H]1C[C@H](CNCCCNCCc2ccccc2)[C@@H](O)[C@H]1O [343 (246)]
100 to 1000 nM | 15 to 20 °C | 100 to 1000 nM | Nc1ncnc2c1c(Br)cn2[C@@H]1C[C@H](CNCCCNCCc2ccc(C(F)(F)F)cc2)[C@@H](O)[C@H]1O [336 (240), (1R,2S,3R,5R)-3-(4-amino-5-bromo-7H-pyrrolo[2,3-d]pyrimidin-7-yl)-5-(((3-((4-(trifluoromethyl)phenethyl)amino)propyl)amino)methyl) cyclopentane-1,2-diol]
10 to 100 nM | 15 to 20 °C | 1000 to 10000 nM | Nc1ncnc2c1c(-c1nccs1)cn2[C@@H]1C[C@H](CNCCCNCCc2ccccc2)[C@@H](O)[C@H]1O [474 (348), (1R,2S,3R,5R)-3-(4-Amino-5-(thiazol-2-yl)-7H-pyrrolo[2,3-d]pyrimidin-7-yl)-5-(((3-(phenethylamino)propyl)amino)methyl) cyclopentane-1,2-diol]
100 to 1000 nM | 10 to 15 °C | 1000 to 10000 nM | CNc1ncnc2c1ccn2[C@@H]1C[C@H](CN(CCCNCCc2ccccc2)c2cn[nH]c2)[C@@H](O)[C@H]1O [442 (314), (1R,2S,3R,5R)-3-(4-(Methylamino)-7H-pyrrolo[2,3-d]pyrimidin-7-yl)-5-(((3-(phenethylamino)propyl)(1H-pyrazol-4-yl)amino)methyl) cyclopentane-1,2-diol]
> 1000 nM | ≤ 10 °C | > 10000 nM | CCc1cn([C@@H]2C[C@H](CNCCCNCCc3ccccc3)[C@@H](O)[C@H]2O)c2ncnc(C)c12 [Compound 611, (1R,2S,3R,5R)-3-(5-ethyl-4-methyl-7H-pyrrolo[2,3-d]pyrimidin-7-yl)-5-(((3-(phenethylamino)propyl)amino)methyl)cyclopentane-1,2-diol]
100 to 1000 nM | 10 to 15 °C | 1000 to 10000 nM | Nc1ncnc2c1c(-c1ncns1)cn2[C@@H]1C[C@H](CNCCCNCCc2ccccc2)[C@@H](O)[C@H]1O [Compound 601, (1R,2S,3R,5R)-3-(4-amino-5-(1,2,4-thiadiazol-5-yl)-7H-pyrrolo[2,3-d]pyrimidin-7-yl)-5-(((3-(phenethylamino)propyl)amino)methyl)cyclopentane-1,2-diol]
